Reference: publication PMC9579956 (RSC Medicinal Chemistry, 2022)

Target: Mycobacterium thermoresistible (Mtr) LpqY (Mycolicibacterium thermoresistibile, UniProt G7CES0)
Assay type: binding
Conditions: single dose MST screen against LpqY

Sequence of Mycobacterium thermoresistible (Mtr) LpqY (G7CES0 29-471): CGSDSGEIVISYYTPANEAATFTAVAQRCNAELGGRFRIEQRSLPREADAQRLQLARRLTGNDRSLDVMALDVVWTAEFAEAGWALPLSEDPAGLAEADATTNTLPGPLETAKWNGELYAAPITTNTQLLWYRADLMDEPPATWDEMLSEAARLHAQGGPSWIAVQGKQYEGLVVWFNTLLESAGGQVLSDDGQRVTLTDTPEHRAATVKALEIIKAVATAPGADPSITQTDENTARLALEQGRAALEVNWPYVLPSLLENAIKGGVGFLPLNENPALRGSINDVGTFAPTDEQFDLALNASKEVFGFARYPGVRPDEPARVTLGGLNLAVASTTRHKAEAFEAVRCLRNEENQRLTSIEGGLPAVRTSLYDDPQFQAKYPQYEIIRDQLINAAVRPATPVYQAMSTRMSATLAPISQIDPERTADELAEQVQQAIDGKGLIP

CC(C)(C)c1cc(C(=O)N2CCN(c3nccnc3C#N)CC2)n(Cc2ccccc2)n1 [MMV023949]
Pathogen Box screen signal/noise ratio: 0.7

O=C(Nc1cccc(-c2ccc(NCCCN3CCCC3)nc2)c1)c1ccccc1 [MMV023953]
Pathogen Box screen signal/noise ratio: 2.4

c1cncc(NCc2ccc(-c3cc4ccncc4cc3OC3CCNCC3)s2)c1 [MMV023969]
Pathogen Box screen signal/noise ratio: 1.3

COc1ccc(-c2cnc3ccc(N4CCCC4)nn23)cc1OC [MMV023985]
Pathogen Box screen signal/noise ratio: 2.0

O=C(Nc1ccccc1)c1ccc(-c2cc3ccncc3cc2OC2CCNCC2)s1 [MMV024035]
Pathogen Box screen signal/noise ratio: 2.8

NS(=O)(=O)c1cncc(-c2ccc3nccc(-c4cn[nH]c4)c3n2)c1 [MMV024101]
Pathogen Box screen signal/noise ratio: 0.429

Cc1ccc(S(=O)(=O)n2cc(-c3ccnc(N)c3)c3cc(Br)cnc32)cc1 [MMV024114]
Pathogen Box screen signal/noise ratio: 1.1

CN(C)CCNC(=O)N1CCCN(c2ncnc3cc(-c4ccccc4)sc23)CC1 [MMV024195]
Pathogen Box screen signal/noise ratio: 0.217

Cc1ccc2[nH]c(C3CCCNC3)c(-c3ccncc3)c2c1 (stereo not drawn) [MMV024311]
Pathogen Box screen signal/noise ratio: 0.4

O=C(NC1CC1)c1ccc(N2CCC(Cc3ccccc3)CC2)nc1 [MMV024397]
Pathogen Box screen signal/noise ratio: 0.8

CN(C(=O)c1cc2c(-c3cncnc3)cccc2[nH]1)c1ccccc1 [MMV024443]
Pathogen Box screen signal/noise ratio: -0.0357

Cc1cccc(C(=O)Nc2ccnc(N(C)C3CCN(CC(C)C)CC3)c2)c1 [MMV024829]
Pathogen Box screen signal/noise ratio: -0.0167

O=C(Nc1ccc(N2CCNCC2)nc1)c1oc(-c2ccccc2)nc1C(F)(F)F [MMV024937]
Pathogen Box screen signal/noise ratio: 2.9

CS(=O)(=O)c1cccc(-c2cnc3[nH]cc(-c4ccc(CCC(=O)O)cc4)c3c2)c1 [MMV026020]
Pathogen Box screen signal/noise ratio: 1.4

Nc1nccc2ccc(Oc3ccncc3)cc12 [MMV026313]
Pathogen Box screen signal/noise ratio: 1.4

CCn1ncc2c(NC3CCOCC3)c(CNC(=O)c3ccnn3C)c(C)nc21 [MMV026356]
Pathogen Box screen signal/noise ratio: 0.6

OCc1ccc(-c2cncc(Nc3cccc(Cl)c3)c2)cc1 [MMV026468]
Pathogen Box screen signal/noise ratio: 0.563

O=C(NCCc1ccccc1)c1cc(-c2cccnc2)cnc1NCC1CC1 [MMV026490]
Pathogen Box screen signal/noise ratio: 1.4

CC(C)(C)CN1C(=O)C(c2ccccc2)(c2ccccc2)N=C1N [MMV026550]
Pathogen Box screen signal/noise ratio: 0.455

OCCc1ccc(Nc2nccc(-c3nnc4ccccn34)n2)cc1 [MMV028694]
Pathogen Box screen signal/noise ratio: 1.5

CC(C)(CN)c1nc(-c2ccc(Cl)c(O)c2)c(-c2ccnc(N)n2)[nH]1 [MMV030734]
Pathogen Box screen signal/noise ratio: 3.5

FC(F)(F)c1cccc(-c2nc3c(NCc4ccncc4)nccc3[nH]2)c1 [MMV032967]
Pathogen Box screen signal/noise ratio: 3.3

O=C1COCc2ccc(Br)cc2N1Cc1ccc(C(F)(F)F)cc1 [MMV032995]
Pathogen Box screen signal/noise ratio: 0.9

c1ccc(Oc2ccc(-c3cc(N4CCOCC4)[nH]n3)cc2)cc1 [MMV045105]
Pathogen Box screen signal/noise ratio: 1.1

COc1cc(C(F)(F)F)nc2ccc(C)c(N)c12 [MMV047015]
Pathogen Box screen signal/noise ratio: 2.0

N#Cc1ccc(-c2ccc(OCC(N)=O)cc2)cc1 [MMV053220]
Pathogen Box screen signal/noise ratio: 0.639

CC(=O)N1CCc2cc3nc(C)cc(C)c3cc21 [MMV054312]
Pathogen Box screen signal/noise ratio: 0.107

Cc1cc(C)nc(-n2nc(C)cc2Nc2ccccc2)n1 [MMV062221]
Pathogen Box screen signal/noise ratio: 0.8

Cc1nn(Cc2ccccc2)c(Cl)c1C(=O)NC1CCCCCC1 [MMV063404]
Pathogen Box screen signal/noise ratio: 2.2

FC(F)(F)c1nnc2ccc(Cl)nn12 [MMV069458]
Pathogen Box screen signal/noise ratio: 2.4

O=C1N(Cc2cc3ccccc3s2)CC2CN(Cc3ccccc3)CCN12 (stereo not drawn) [MMV084603]
Pathogen Box screen signal/noise ratio: 1.3

O=C(Nc1cnc2ccccc2c1)c1cccc(-n2cnnn2)c1 [MMV084864]
Pathogen Box screen signal/noise ratio: 1.5

COc1cncc(-c2cncc(N3CCN(c4ccncc4)CC3)n2)c1 [MMV085071]
Pathogen Box screen signal/noise ratio: 1.2

O=C(C(Cc1c[nH]c2ccccc12)NS(=O)(=O)c1ccc(Cl)cc1)N1CCCCC1 (stereo not drawn) [MMV085210]
Pathogen Box screen signal/noise ratio: 2.9

CCCNC(=O)N1CCC2(CC1)CC(=O)c1cc(C)ccc1O2 [MMV085230]
Pathogen Box screen signal/noise ratio: 1.0

N#Cc1ccc(-c2cnc(N)c(-c3ccc(C(N)=O)cc3)n2)cc1 [MMV085499]
Pathogen Box screen signal/noise ratio: 2.4

Cc1nn2c(O)c3c(nc2c1-c1ccc(F)cc1)CCCC3 [MMV099637]
Pathogen Box screen signal/noise ratio: 3.3

O=C(Nc1nnc(-c2ccc(Cl)cc2)o1)c1cccc(C(F)(F)F)c1 [MMV102872]
Pathogen Box screen signal/noise ratio: 0.75

CCC(C)NC(=O)c1ccc(NC(=O)C2(c3ccccc3)CCCC2)cc1 (stereo not drawn) [MMV146306]
Pathogen Box screen signal/noise ratio: -0.653

CCOC(=O)c1c(NC(=O)c2c(F)c(F)c(F)c(F)c2F)sc(C(N)=O)c1C [MMV153413]
Pathogen Box screen signal/noise ratio: 1.3

Cc1cc(Cl)ccc1NC(=O)CCc1ccc(S(=O)(=O)NCC(C)C)cc1 [MMV161996]
Pathogen Box screen signal/noise ratio: 1.2

CNC(=O)C1Cc2ccccc2N1C(=O)Cc1ccc(F)cc1 (stereo not drawn) [MMV188296]
Pathogen Box screen signal/noise ratio: 1.9

COc1ccc(C2(C(=O)Nc3ccc(Br)cc3)CCCC2)cc1 [MMV200748]
Pathogen Box screen signal/noise ratio: 1.4

CCC(=O)Nc1ccccc1C(=O)Nc1ccccn1 [MMV202553]
Pathogen Box screen signal/noise ratio: 1.4

COc1cccc(NC(=O)c2c(NC(=O)c3cccnc3)sc3c2CCC3)c1 [MMV228911]
Pathogen Box screen signal/noise ratio: 2.2

COc1cccc(-n2nnnc2S(C)(=O)=O)c1 [MMV272144]
Pathogen Box screen signal/noise ratio: 0.7

COc1cccc(-c2cc3c(Nc4cccnc4)nccc3[nH]2)c1 [MMV392832]
Pathogen Box screen signal/noise ratio: 2.1

CN1CCN(c2nccc3[nH]c(-c4cccc(F)c4)cc23)CC1 [MMV393144]
Pathogen Box screen signal/noise ratio: 1.4

Cc1cc(O)nc(-n2nc(C)cc2C)n1 [MMV393995]
Pathogen Box screen signal/noise ratio: 0.65

CCc1nc2ccc(C(=O)NCc3ccc4c(c3)OCO4)cn2c1N(C)Cc1cccs1 [MMV407539]
Pathogen Box screen signal/noise ratio: 0.241

CCOc1ccccc1NC(C)C(=O)Nc1cc(C(F)(F)F)ccc1N1CCOCC1 (stereo not drawn) [MMV407834]
Pathogen Box screen signal/noise ratio: 2.3

COC(=O)c1c(NC(=O)c2c(F)c(F)c(F)c(F)c2F)sc2c1CCCCC2 [MMV461553]
Pathogen Box screen signal/noise ratio: 2.6

CC(C)(C)c1cnc(NC(=O)c2ccccc2O)s1 [MMV495543]
Pathogen Box screen signal/noise ratio: 0.8

CS(=O)(=O)Cc1nc2ccccc2oc1=O [MMV553002]
Pathogen Box screen signal/noise ratio: 3.2

c1ccc(-c2cc(N3CCCCC3)c3ccccc3n2)nc1 [MMV560185]
Pathogen Box screen signal/noise ratio: 0.7

CCN(CC)S(=O)(=O)c1ccc(C(=O)Nc2cc(C)nn2-c2nc(C)c(C)c(=O)[nH]2)cc1 [MMV595321]
Pathogen Box screen signal/noise ratio: 0.167

CCC(Sc1nc2ccccc2o1)C(=O)Nc1nnc(C)s1 (stereo not drawn) [MMV611037]
Pathogen Box screen signal/noise ratio: 0.9

O=C(NCCN1CCCC1)c1cc(NCCN2CCOCC2)nc2ccc(Cl)cc12 [MMV634140]
Pathogen Box screen signal/noise ratio: 0.9

Cc1ccc(C(=O)Nc2ccc(S(=O)(=O)O)c3cc(S(=O)(=O)O)cc(S(=O)(=O)O)c23)cc1NC(=O)c1cccc(NC(=O)Nc2cccc(C(=O)Nc3cc(C(=O)Nc4ccc(S(=O)(=O)O)c5cc(S(=O)(=O)O)cc(S(=O)(=O)O)c45)ccc3C)c2)c1 [MMV637953]
Pathogen Box screen signal/noise ratio: 0.7

O=C(Nc1ccc2c(c1)B(O)OC2)c1ccccc1C(F)(F)F [MMV652003]
Pathogen Box screen signal/noise ratio: 0.444

Cc1nc(-c2ccccn2)nc(N(C)CCc2ccccc2)c1Cl [MMV658988]
Pathogen Box screen signal/noise ratio: 2.9

Cc1nc(-c2ccccn2)nc(NCCc2ccc(S(C)(=O)=O)cc2)c1Cl [MMV658993]
Pathogen Box screen signal/noise ratio: 0.75

Cc1nc(-c2ccccn2)nc(N2CCC(Cc3ccccc3)C2)c1Cl (stereo not drawn) [MMV659004]
Pathogen Box screen signal/noise ratio: 0.2

FC(F)(F)c1cc(NCCc2ccccc2)nc(-c2ccccn2)n1 [MMV659010]
Pathogen Box screen signal/noise ratio: 1.0

Brc1cncc(-c2cc(NCCCn3ccnc3)nc(-c3ccccc3)n2)c1 [MMV661713]
Pathogen Box screen signal/noise ratio: 0.5

Clc1cccc(C(c2ccc(CN3CCNCC3)cc2)n2ccnc2)c1 (stereo not drawn) [MMV663250]
Pathogen Box screen signal/noise ratio: 0.278

O=C(NCCN1CCCC1)c1cc(NCCCCN2CCC(F)(F)CC2)nc2ccc(Cl)cc12 [MMV667494]
Pathogen Box screen signal/noise ratio: 0.344

Nc1ncc(-c2ccc(C(F)(F)F)nc2)cc1-c1ccc(C(F)(F)F)nc1 [MMV668727]
Pathogen Box screen signal/noise ratio: 2.0

Cc1[nH]c2cc(F)cc(F)c2c(=O)c1-c1ccc(Oc2ccc(OC(F)(F)F)cc2)cc1 [MMV671636]
Pathogen Box screen signal/noise ratio: 0.545

COc1ccc(OC)c(NCc2ccc3nc(N)nc(N)c3c2Cl)c1 [MMV675968]
Pathogen Box screen signal/noise ratio: 5.0

CC(C)(C)c1ccc(N[C@@H]2CCCC[C@H]2NC(=O)c2ccco2)cc1 [MMV675969]
Pathogen Box screen signal/noise ratio: 0.3

COc1ccc(-c2nn(C(C)C)c3ncnc(N)c23)cc1OC [MMV675993]
Pathogen Box screen signal/noise ratio: 0.75

Clc1ccc(-n2cc(COc3ccnc4ccccc34)nn2)cc1 [MMV675994]
Pathogen Box screen signal/noise ratio: 3.3

COc1ccc(N(CCc2cccc(C)n2)C(C)=O)cc1 [MMV675995]
Pathogen Box screen signal/noise ratio: 0.318

N#CCN(CCCCN1CCN(c2ccc(F)cc2)CC1)C(=O)OCc1ccccc1 [MMV675997]
Pathogen Box screen signal/noise ratio: 0.322

COc1ccc(C(=N)N)cc1-c1cn(-c2ccc(C(=N)N)cc2)nn1 [MMV675998]
Pathogen Box screen signal/noise ratio: 1.0

O=C(Nc1c(O)cccc1-c1nc2c(C(=O)O)cccc2o1)c1cc(-c2ccccc2)on1 [MMV676008]
Pathogen Box screen signal/noise ratio: 1.7

Clc1ccc(Cl)c(CO[C@H]2CCCC[C@@H]2n2ccnc2)c1 [MMV676048]
Pathogen Box screen signal/noise ratio: 1.1

CS(=O)(=O)N1CCC(Cn2nc(Cc3cccc4ccccc34)c3c(N)ncnc32)CC1 [MMV676050]
Pathogen Box screen signal/noise ratio: 0.8

COc1cc(NC(=O)Cc2nn(C)c(=O)c3ccccc23)ccc1Cl [MMV676053]
Pathogen Box screen signal/noise ratio: 1.3

CC(C)(C)OC(=O)N1CCN(c2cc(-c3ccc(Oc4ccccc4)cc3)n[nH]2)CC1 [MMV676057]
Pathogen Box screen signal/noise ratio: 1.2
